Source: US20240066155A1, “DUAL MODE RADIOTRACER AND -THERAPEUTICS” (priority 2021, published 2024)
“And” between values parts separate entries of the source, which are not always exact repeats. Equal entries are not always repeated.

How the values were obtained:
LNCaP cells = assay: PSMA-mediated internalization into LNCaP cells; type: cell-based; conditions: 1 h, 37° C., percentage of reference ligand ([125I]BA)KuE, n=3
Procedure: (§1) Competitive binding studies were determined on LNCaP cells (1.5×10^5 cells in 1 mL/well) after incubation at 4° C. for 1 h, using (((S)-1-carboxy-5-(4-([^125I]iodo)benzamido)pentyl)carbamoyl)-L-glutamic acid ([^125I]BA)KuE; 0.2 nM/well) as reference radioligand (n=3). Internalization studies of the radiolabeled ligands (1.0 nM/well) were performed on LNCaP cells (1.25×10^5 cells in 1 mL/well) at 37° C. for 1 h and accompanied by ([^125I]BA)KuE (0.2 nM/well), as reference. Data were corrected for non-specific binding and normalized to the specific internalization observed for the reference (n=3). A detailed description of the experimental procedures was previously published (Wurzer A, et al. J Nucl Med. 2020; 61: 735-742).

PSMA = target: T1, PSMA (Homo sapiens, UniProt Q04609); assay: Competitive binding studies on LNCaP cells vs ([125I]BA)KuE (affinity, IC50); conditions: 1 h, 4° C., natLu complexes
T1 construct: endogenous in cells; host or cells: LNCaP cells
Procedure: as §1

[1] = Lipophilicity, n-octanol/PBS (pH 7.4) distribution; type: physicochemical; conditions: n-octanol/PBS pH 7.4, 177Lu-labeled, n=6
Procedure: Approximately 1 MBq of the ^177Lu-labeled PSMA ligand was dissolved in 1 mL of a 1:1 mixture (v/v) of phosphate-buffered saline (PBS, pH 7.4) and n-octanol (n=6). After vigorous mixing of the suspension for 3 min, the vial was centrifuged at 15000×g for 3 min and 100 μL aliquots of both layers were measured in a γ-counter. Finally, the ratio of the radioactivity detected in the n-octanol sample and the PBS buffer was calculated and expressed as distribution ratio log D7.4.

human serum albumin = target: T2, human serum albumin (Homo sapiens, UniProt P02768); assay: Binding to human serum albumin by albumin mediated size exclusion chromatography (AMSEC); type: in vitro ADME; conditions: size exclusion chromatography with HSA in the mobile phase, 177Lu-labeled
T2 construct: purchased Biowest, Nuaillé, France
Procedure: Binding of ^177Lu-labeled ligands to HSA was assessed by albumin mediated size exclusion chromatography (AMSEC). A gel filtration size exclusion column (Superdex 75 Increase 10/300 GL, GE Healthcare, Uppsala, Sweden) was used with HSA buffer at physiological concentration (700 μM, Biowest, Nuaillé, France) as mobile phase (constant flow rate of 0.8 mL/min at room temperature). For calibration purposes, a commercially available set of proteins (GE Healthcare, Buckinghamshire, UK) was used. Under these chromatographic conditions, the retention time of a radioligand (1.0 MBq, 10-20 GBq/μmol) depends on the extent of HSA/ligand interactions and thus, by means of the calibration with the aforementioned set of proteins, can be translated into an AMW (expressed in kDa) as a parameter allowing to quantify the extent of HSA binding. The detection window ranges between 2.3 kDa ([^18F]Fluoride; no HSA interaction) and 70.2 kDa (experimental molecular weight of HSA; maximum HSA interaction).

[2] = system: LNCaP tumor-bearing male CB-17 SCID mice; assay: Ex vivo biodistribution in LNCaP tumor-bearing CB-17 SCID mice; conditions: 24 h p.i.
Procedure: All animal experiments were conducted in accordance with general animal welfare regulations in Germany (German animal protection act, as amended on 18 May 2018, Art. 141 G v. 29 Mar. 2017 I 626, approval no. 55.2-1-54-2532-71-13) and the institutional guidelines for the care and use of animals. LNCaP tumor xenografts were established in 6-8 weeks old male CB-17 SCID mice as described previously (Wurzer A, et al. J Nucl Med. 2020; 61: 735-742). Biodistribution Studies. The ^177Ludabeled PSMA inhibitors (2-5 MBq; 0.1 nmol) were injected under isoflurane anesthesia into the tail vein of LNCaP tumor-bearing male CB-17 SCID mice that were sacrificed 24 h post injection (p.i.) (n=4-5). Selected organs were removed, weighed, and measured in a counter. All rhPSMA ligands were evaluated in mice during the same time period (Q1/2020), whereas ^177Ludabeled PSMA-617 and PSMA I&T (Wirtz M, et al. EJNMMI Res. 2018; 8: 84) were assessed previously using the identical cell line, mouse model and experimental procedure.

[3] = n=5, mean of ratios per mouse, listed as [^177Lu] PSMA-I&T

T1 sequence (Q04609 whole entry): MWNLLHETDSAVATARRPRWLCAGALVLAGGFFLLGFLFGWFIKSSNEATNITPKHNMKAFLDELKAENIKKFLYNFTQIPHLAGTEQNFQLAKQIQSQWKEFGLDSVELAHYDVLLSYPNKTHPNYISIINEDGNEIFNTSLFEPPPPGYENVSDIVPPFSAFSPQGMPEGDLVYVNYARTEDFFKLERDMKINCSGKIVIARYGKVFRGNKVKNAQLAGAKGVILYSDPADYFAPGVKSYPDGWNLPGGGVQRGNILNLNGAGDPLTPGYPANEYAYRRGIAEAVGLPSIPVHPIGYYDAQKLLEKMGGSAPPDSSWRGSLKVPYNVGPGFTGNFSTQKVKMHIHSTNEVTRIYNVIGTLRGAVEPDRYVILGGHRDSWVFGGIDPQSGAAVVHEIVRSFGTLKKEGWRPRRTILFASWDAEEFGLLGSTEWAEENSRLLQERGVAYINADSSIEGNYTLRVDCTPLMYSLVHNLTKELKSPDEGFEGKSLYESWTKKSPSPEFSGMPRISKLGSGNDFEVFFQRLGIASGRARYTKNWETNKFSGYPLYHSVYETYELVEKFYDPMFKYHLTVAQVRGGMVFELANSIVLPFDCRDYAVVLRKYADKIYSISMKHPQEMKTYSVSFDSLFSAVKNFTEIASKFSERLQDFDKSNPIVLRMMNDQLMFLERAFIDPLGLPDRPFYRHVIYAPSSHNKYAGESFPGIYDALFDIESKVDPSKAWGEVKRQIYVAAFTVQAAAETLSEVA
T2 sequence (P02768 25-609): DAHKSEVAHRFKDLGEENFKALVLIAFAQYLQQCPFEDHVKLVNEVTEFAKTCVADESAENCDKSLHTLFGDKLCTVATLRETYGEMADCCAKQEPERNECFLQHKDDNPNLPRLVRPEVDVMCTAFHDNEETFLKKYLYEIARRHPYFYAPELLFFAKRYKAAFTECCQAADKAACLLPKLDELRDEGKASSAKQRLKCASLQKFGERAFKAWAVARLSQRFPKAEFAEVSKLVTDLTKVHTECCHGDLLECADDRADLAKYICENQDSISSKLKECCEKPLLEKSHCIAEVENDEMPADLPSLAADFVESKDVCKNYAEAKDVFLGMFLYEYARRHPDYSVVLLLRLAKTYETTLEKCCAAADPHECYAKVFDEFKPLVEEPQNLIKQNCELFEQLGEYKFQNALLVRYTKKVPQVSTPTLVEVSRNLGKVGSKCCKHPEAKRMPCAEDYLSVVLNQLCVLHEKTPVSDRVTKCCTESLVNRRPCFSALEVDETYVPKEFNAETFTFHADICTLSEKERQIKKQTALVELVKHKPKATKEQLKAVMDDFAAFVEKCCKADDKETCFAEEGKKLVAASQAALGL

CC(C)(C)[Si](F)(c1ccc(C(=O)NC[C@H](NC(=O)CC[C@H](C(=O)O)N2CCN(CC(=O)[O-])CCN(CC(=O)[O-])CCN(CC(=O)[O-])CC2)C(=O)N[C@H](CCCCNC(=O)CCC(=O)NCCC[C@@H](NC(=O)CC[C@H](NC(=O)N[C@@H](CCC(=O)O)C(=O)O)C(=O)O)C(=O)O)C(=O)O)cc1)C(C)(C)C.[Lu+3] [[^177Lu, ^19F]rhPSMA-7.2]
Internalization [% IBA-KuE] (LNCaP cells): 197.3 ± 15.0 % IBA-KuE | IC50 (PSMA; n=3): 2.88 ± 1.06 nM | logD7.4 [1]: −4.25 ± 0.29 | MWapp [kDa] (apparent molecular weight, AMW; HSA binding) (human serum albumin): 31.7 kDa

CC(C)(C)[Si](F)(c1ccc(C(=O)NC[C@H](NC(=O)CC[C@@H](C(=O)O)N2CCN(CC(=O)[O-])CCN(CC(=O)[O-])CCN(CC(=O)[O-])CC2)C(=O)N[C@H](CCCCNC(=O)CCC(=O)NCCC[C@@H](NC(=O)CC[C@H](NC(=O)N[C@@H](CCC(=O)O)C(=O)O)C(=O)O)C(=O)O)C(=O)O)cc1)C(C)(C)C.[Lu+3] [[^177Lu, ^19F]rhPSMA-7.4]
Internalization [% IBA-KuE] (LNCaP cells): 190.4 ± 10.5 % IBA-KuE | IC50 (PSMA; n=3): 3.06 ± 1.51 nM | logD7.4 [1]: −4.10 ± 0.14 | MWapp [kDa] (apparent molecular weight, AMW; HSA binding) (human serum albumin): 35.7 kDa

O=C([O-])CN1CCN(CC(=O)[O-])CCN(C(CCC(=O)N[C@H](Cc2ccc(O)c(I)c2)C(=O)N[C@H](Cc2ccccc2)C(=O)N[C@H](CCCCNC(=O)CCCCCCC(=O)NCCCC[C@H](NC(=O)N[C@@H](CCC(=O)O)C(=O)O)C(=O)O)C(=O)O)C(=O)O)CCN(CC(=O)[O-])CC1.[Lu+3] (stereo partly shown) [[^177Lu]PSMA I&T]
Tumor uptake ([2]; LNCaP tumor): 4.1±1.1 % ID/g | Tumor-to-organ ratio adrenals ([2]; n=5, mean of ratios per mouse): 5.62 | Tumor-to-organ ratio blood ([2]; n=5, mean of ratios per mouse): 1288 | Tumor-to-organ ratio bone ([2]; n=5, mean of ratios per mouse): 358.26 | Tumor-to-organ ratio heart ([2]; n=5, mean of ratios per mouse): 366.06 | Tumor-to-organ ratio intestine ([2]; n=5, mean of ratios per mouse): 191.31 | Tumor-to-organ ratio kidney ([2]; n=5, mean of ratios per mouse): 0.6 | Tumor-to-organ ratio liver ([2]; n=5, mean of ratios per mouse): 155.09 | Tumor-to-organ ratio lung ([2]; n=5, mean of ratios per mouse): 65.08 | Tumor-to-organ ratio muscle ([2]; n=5, mean of ratios per mouse): 1964.92 | Tumor-to-organ ratio pancreas ([2]; n=5, mean of ratios per mouse): 336.33 | Tumor-to-organ ratio parotid gl. ([2]; n=5, mean of ratios per mouse): 63.21 | Tumor-to-organ ratio spleen ([2]; n=5, mean of ratios per mouse): 9.06 | Tumor-to-organ ratio stomach ([2]; n=5, mean of ratios per mouse): 236.69 | Tumor-to-organ ratio submand. gl. ([2]; n=5, mean of ratios per mouse): 136.76 | Tumor-to-organ ratio blood [2, 3]: 1288.54 | Tumor-to-organ ratio kidney [2, 3]: 0.61 | Activity accumulation adrenals ([2]; n=5, mean, complete dataset): 1.3590 % ID/g | Activity accumulation blood ([2]; n=5, mean, complete dataset): 0.0061 % ID/g | Activity accumulation bone ([2]; n=5, mean, complete dataset): 0.0209 % ID/g | Activity accumulation heart ([2]; n=5, mean, complete dataset): 0.0208 % ID/g | Activity accumulation intestine ([2]; n=5, mean, complete dataset): 0.0507 % ID/g | Activity accumulation kidney ([2]; n=5, mean, complete dataset): 15.9±12.0 % ID/g | Activity accumulation liver ([2]; n=5, mean, complete dataset): 0.0553 % ID/g | Activity accumulation lung ([2]; n=5, mean, complete dataset): 0.1138 % ID/g | Activity accumulation muscle ([2]; n=5, mean, complete dataset): 0.0051 % ID/g | Activity accumulation pancreas ([2]; n=5, mean, complete dataset): 0.0295 % ID/g | Activity accumulation parotid gl. ([2]; n=5, mean, complete dataset): 0.1346 % ID/g | Activity accumulation spleen ([2]; n=5, mean, complete dataset): 1.2047 % ID/g | Activity accumulation stomach ([2]; n=5, mean, complete dataset): 0.0326 % ID/g | Activity accumulation submand. gl. ([2]; n=5, mean, complete dataset): 0.0581 % ID/g | Activity accumulation tumor ([2]; n=5, mean, complete dataset, LNCaP tumor): 7.5780 % ID/g | Activity accumulation kidney ([2]; n=5, mean, complete dataset, listed as [^177Lu]PSMA-I&T): 15.8527 % ID/g | Internalization [% IBA-KuE] (LNCaP cells): 145±14 % IBA-KuE and 145.4 ± 13.8 % IBA-KuE | IC50 (PSMA; n=3): 4.17 ± 0.78 nM | IC50 (PSMA; n=3, listed as [^natLu]PSMA I&T): 4.2 ± 0.8 nM | logD7.4 [1]: −4.1 ± 0.1 | MWapp [kDa] (apparent molecular weight, AMW; HSA binding) (human serum albumin): 5.3 kDa
